{"source": "patent US7150974B1", "about": "“Parathyroid hormone receptor binding method” (The General Hospital Corporation, priority 1991, dated 2006)", "key": {"[1]": {"target": "T1, rat bone PTH/PTHrP receptor (Rattus norvegicus, UniProt P25961, E586G)", "T1 construct": "expressed in transfected cells; host or cells: COS / COS-7 cells, transient, plasmid R15B (pcDNA I)", "T1 sequence (P25961 27-591 E586G)": "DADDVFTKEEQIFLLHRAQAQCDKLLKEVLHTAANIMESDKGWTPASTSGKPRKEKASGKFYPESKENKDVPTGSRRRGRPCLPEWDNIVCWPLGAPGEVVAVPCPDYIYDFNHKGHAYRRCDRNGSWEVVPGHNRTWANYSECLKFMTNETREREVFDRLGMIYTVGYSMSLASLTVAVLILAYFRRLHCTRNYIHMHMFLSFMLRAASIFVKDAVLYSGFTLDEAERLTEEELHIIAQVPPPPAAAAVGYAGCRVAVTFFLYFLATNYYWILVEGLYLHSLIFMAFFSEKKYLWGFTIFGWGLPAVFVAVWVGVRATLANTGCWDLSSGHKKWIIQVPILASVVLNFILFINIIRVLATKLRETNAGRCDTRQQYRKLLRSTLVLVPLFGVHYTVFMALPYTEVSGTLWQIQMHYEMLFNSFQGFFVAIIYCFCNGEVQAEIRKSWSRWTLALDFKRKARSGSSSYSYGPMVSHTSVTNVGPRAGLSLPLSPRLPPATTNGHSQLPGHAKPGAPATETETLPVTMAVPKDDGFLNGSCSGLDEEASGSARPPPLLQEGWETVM", "assay": "Radioreceptor assay, COS cells expressing rat bone PTH/PTHrP receptor (R15B)", "assay_type": "binding", "protocol": "In brief, the labeled peptide was dissolved in 0.1% trifluoracetic acid (TFA), applied to a C18 Sep-pak cartridge (Waters Associates, Inc., Milford, Mass.) and eluted with a solution of 60% acetonitrile in 0.1% TFA. After lyophilization, the radioligand then was applied to C18-μBondapak column (3.9 mm×30 cm. Waters Associates) and eluted over 30 min with a linear gradient of 30-50% acetonitrile-0.1% TFA at a flow rate of 2 ml/min.\nCOS-7 cells were grown in 15 cm plates in DMEM, 10% heat-inactivated […], 10 mg/L gentamycin until 80-90% confluent. Twenty-four hours after transfection by the DEAE/Dextran method (Sambrook et al., supra), with 1-2 μg of plasmid DNA, the cells were trypsinized and replated in multiwell plastic dishes (16 or 35 mm diameter, Costar, Cambridge, Mass.) at a cell concentration of 5×10^4 cells/cm^2). […] After continuing culture for another 48 h, radiorecepter assays were performed. The culture medium was replaced with buffer containing 50 mM Tris-HCL (pH 7.7), 100 mM NaCl, 2 mM CaCl2, 5 mM KCL, 0.5% heat-inactivated fetal bovine serum (GIBCO), and 5% heat-inactivated horse serum (KC Biological Inc., Lenexa, Kans.) immediately before studies were initiated.\nIncubations were terminated by aspirating the buffer, and repeatedly (×3) washing the culture dishes, containing the adherent cells with chilled 0.9% NaCl solution, over a 15 sec period. Cell-bound radioactivity was recovered by the sequential addition (×3) of 1 N NaOH (200 μl) to each well. After 30 min at room temperature, the NaOH was transferred to a glass tube. A second and third extraction with 1 N NaOH (200 μl) were combined with the first, and the total radioactivity was counted in a γ-spectrometer (Packard Instruments, Downers Grove, Ill.)."}, "[2]": {"target": "T2, opossum kidney PTH/PTHrp receptor clone, OK-O (Didelphis virginiana, UniProt P25107, I132F/S86P)", "T2 construct": "expressed in transfected cells; host or cells: COS cells, transient, plasmid OK-O (pcDNA I)", "T2 sequence (P25107 27-585 S86P/I132F)": "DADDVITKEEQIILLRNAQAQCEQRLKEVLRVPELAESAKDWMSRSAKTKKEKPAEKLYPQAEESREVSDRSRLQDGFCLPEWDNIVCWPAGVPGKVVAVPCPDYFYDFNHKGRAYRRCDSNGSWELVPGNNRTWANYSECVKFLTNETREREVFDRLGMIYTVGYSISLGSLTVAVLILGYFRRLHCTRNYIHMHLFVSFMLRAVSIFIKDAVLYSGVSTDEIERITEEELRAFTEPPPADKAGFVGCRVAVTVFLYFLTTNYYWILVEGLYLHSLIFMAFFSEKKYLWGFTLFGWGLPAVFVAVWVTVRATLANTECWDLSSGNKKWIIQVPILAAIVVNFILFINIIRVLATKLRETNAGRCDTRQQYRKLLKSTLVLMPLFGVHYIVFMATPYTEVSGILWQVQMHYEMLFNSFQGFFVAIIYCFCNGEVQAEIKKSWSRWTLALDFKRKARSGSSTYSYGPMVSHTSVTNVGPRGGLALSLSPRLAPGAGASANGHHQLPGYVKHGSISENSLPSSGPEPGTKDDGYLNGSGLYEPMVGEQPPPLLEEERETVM", "assay": "Intracellular free calcium, COS cells expressing OK-O", "assay_type": "cell-based", "conditions": "FIG. 12", "protocol": "Details of the methodology are:\nCoverslips plated with COS cells were incubated in Fura-2 AM loading buffer containing, in mM: HEPES (N-[2-Hydroxyethyl]piperazine-N′-[2-ethanesulfonic acid]), 20; CaCl2, 1; KCl 5; NaCl, 145; MgSO4, 0.5; NaHCO3, 25; K2HPO4, 1.4; glucose, 10; and Fura-2 AM 91-(2-5′-carboxyoxazol-2′-yl)-6-aminobenzofuran-5oxy-(2′-amino-5′-methylphenoxy)ethane-N,N,N′,N′-tetraaecetic acid acetomethoxy ester), 0.5; at 37° C. at pH7.4, aerated with 95% air and 5% CO2 for 45 minutes. Cells loaded with Fura-2 AM were then washed with a modified Krebs-Heinseleit (KH) buffer containing, in mM: HEPES, 20; CaCl2, 1; KCl, 5; NaCl, 145; MgSO4, 0.5; Na2HPO4, 1; glucose, 5; pH7.4. To check that cleavage of the ester occurred, the excitation spectra after different times of Fura-2 AM incubation were measured.\nTo measure fluorescence of individual cells, the cover slips were placed in a microscope tissue chamber (Biophysica Technologies, Inc., MD). The chamber consisted of a shallow, sloped compartment made of Teflon with a silicone rubber seal. The cover slips served as the bottom of the chamber. A heater/cooler ring was encased in the silicone rubber which sealed the coverslip in place."}, "[3]": {"target": "T1, rat bone PTH/PTHrP receptor", "assay": "Inositol phosphate metabolism, COS cells expressing R15B", "assay_type": "cell-based", "conditions": "FIG. 15"}}, "data": [{"substance": "[Nle^8,18, Tyr^34]bPTH(1-34)amide", "values": [{"measurement": "inhibition of 125I-PTHrP binding by competitor", "setting": "[1]; COS cells expressing R15B, FIG. 13", "result": "inhibited"}, {"measurement": "specific binding of radiolabelled ligand", "setting": "[1]; radiolabelled ligand ~200,000 cpm, COS-7 cells expressing R15B", "result": "8.1 ± 3.5", "unit": "%"}, {"measurement": "increase in intracellular free calcium", "setting": "[2]", "result": "increase"}, {"measurement": "inositol phosphate metabolism (IP3 and IP2 accumulation)", "setting": "[3]", "result": "rapid increase"}]}]}
